# Data published in US11618883B2, “Method for producing retinal pigment epithelial cells” (SUMITOMO PHARMA CO., LTD., priority 2017, dated 2023).
# Key:
# [1] = tested on: human iPS cells (QHJI01 line); test: Production of RPE cells from iPS cells with a ROCK inhibitor or caspase inhibitor in the second step; visual observation of brown-black cell population; type: cell-based
# [2] = tested on: human iPS cells (201B7, 1231A3, Ff-I01, QHJI01 lines); test: Production of RPE cells including MEK inhibitor or FGF receptor inhibitor treatment step (first step); observation of brown-black cell population; type: cell-based; details: for concentrations at which emergence of a brown-black cell population could be confirmed over a wide area: first step 6 days, QHJI01 line, day 36 and day 49 of culture; for emergence of RPE cells showing typical characteristics of RPE cell: 38 to 47 days of culture
# Description: In one embodiment, to study the effect of the FGF receptor inhibitor in a medium free of a factor for maintaining undifferentiated state (bFGF), STEMSURE™ hPSC Medium Δ (Wako Pure Chemical Industries, Ltd.) (hereinafter STEMSURE™ hPSC Medium Δ w/o bFGF) not added with bFGF was used.
# 2014 Jan. 8; 4: 3594”. The medium used was STEMFIT™ AK03N medium (Ajinomoto Co., Inc.) (hereinafter AK03N medium).
# RPE65, BEST1, CRALBP = test: RT-PCR of retinal pigment epithelial cell markers after MEK inhibitor or FGF receptor inhibitor treatment step; type: cell-based, human; details: first step 6 days (1 μM PD0325901 or 100 nM PD173074); 1231A3 line; day 43; bands very thin when untreated
# Procedure: 2014 Jan. 8; 4: 3594”. The medium used was […] A[…] medium (Ajinomoto Co., Inc.) (hereinafter A[…] medium). […] After observation on day 43 of culture, the cells were collected, RNA was extracted and RT-PCR was performed. RNEASYTM Micro Kit (QIAGEN) was used for RNA extraction, Oligo(dT)12-18Primer (Invitrogen) and SUPERSCRIPTTM III Reverse Transcriptase (Invitrogen) were used for reverse transcription reaction, and BLEND TAQTM-Plus-(TOYOBO) was used for PCR. The primer sequences of RPE65, BEST1, CRLBP, GAPDH are as described below. […] NO: 1), […] NO: 2), […] NO: 3), […] NO: 4), CRALBP-[…] NO: 5), CRALBP-[…] NO: 6), […] NO: 7), […] NO: 8). The number of cycles of the PCR reaction was 30 cycles for RPE65, BEST1, GAPDH, and 35 cycles for CRALBP. PCR products were detected as a single band by agarose gel electrophoresis at near 369 bp for RPE65, near 261 bp for BEST1, near 341 bp for CRALBP, and near 452 bp for GAPDH. As a positive control, primary human RPE (hRPE) was used and, as a negative control, iPS cells (undifferentiated iPSC) cultured under conditions for maintaining undifferentiated state were used.
# [3] = tested on: human iPS cells (1231A3 line); test: Production of RPE cells from iPS cells with a ROCK inhibitor in the second step; visual observation of brown-black cell population; type: cell-based; details: for concentration at which emergence of a brown-black cell population could be visually confirmed: second step
# Procedure: 2014 Jan. 8; 4: 3594”. The medium used was […] A[…] medium (Ajinomoto Co., Inc.) (hereinafter AK03 medium). […] On the next day of seeding, FGF receptor inhibitor PD173074 (SIGMA) (final concentration 100 nM) was added to the A[…] medium (start of the first step), the medium was exchanged with A[…] medium added with an FGF receptor inhibitor every other day, and the cells were exposed to the FGF receptor inhibitor for 6 days in total (completion of the first step). […] On the first day of culture, A[…] (final concentration 10 μM) or A[…] medium without addition of Y-27632 as a comparison target was used. […] 2014 Jan. 8; 4: 3594”. The medium used was […] A[…] medium (Ajinomoto Co., Inc.) (hereinafter A[…] medium). […] On the next day of seeding, FGF receptor inhibitor PD173074 (SIGMA) (final concentration 100 nM) or MEK inhibitor PD0325901 (SIGMA) (final concentration 1 μM) was added to the A[…] medium (start of the first step), the medium was exchanged with A[…] medium added with an FGF receptor inhibitor or MEK inhibitor every other day, and the cells were exposed to FGF receptor inhibitor or MEK inhibitor for 6 days in total (completion of the first step). […] In the case of 1231A3 line, on the first day of culture, A[…] to a final concentration of 1 μM, 3 μM, 10 μM, 30 μM or 100 μM or, as a comparison target, A[…] medium without addition of Y-27632 was used. […] 2014 Jan. 8; 4: 3594”. The medium used was […] A[…] medium (Ajinomoto Co., Inc.) (hereinafter A[…] medium). […] On the next day of seeding, FGF receptor inhibitor PD173074 (SIGMA) (final concentration 100 nM) was added to the A[…] medium (start of the first step), the medium was exchanged every other day using A[…] medium added with FGF receptor inhibitor, and the cells were exposed to FGF receptor inhibitor for 6 days in total (completion of the first step). […] In the case of 1231A3 line, on the first day of culture, A[…] medium added with ROCK inhibitor Fasudil (Wako Pure Chemical Industries, Ltd.) to a final concentration of 10 μM, 30 μM or 100 μM or, as a comparison target, A[…] medium without addition of Fasudil was used.
# [4] = tested on: human iPS cells (QHJI01 line); test: Differentiation induction effect of Nodal and/or Wnt signal transduction pathway inhibitor in the second step; type: cell-based; details: for emergence of cells showing typical characteristics of RPE cell: second step days 1-12 with 10 μM Y-27632 plus 5 μM SB-431542 and/or 3 μM CKI-7, first step 1 μM PD0325901, day 43
# Procedure: Production of retinal pigment epithelial (RPE) cells including an MEK inhibitor treatment step was performed as follows. iPS cells under culture for maintaining undifferentiated state were treated with 0.5×TRYPLE™ Select cell dissociation solution (mixture of equal amounts of TRYPLE™ Select cell dissociation solution (Life Technologies) and 0.5 mM EDTA/PBS(−)), dissociated using a cell scraper, dispersed to single cells by pipetting, seeded in a 6-well culture plate coated with IMATRIX™-511 laminin 511 E8 fragment (Nippi) (0.5 μg/cm^2) at 2.0×10^4 cells per 1 well and cultured in a ROCK inhibitor [10 μM Y-27632 (Wako Pure Chemical Industries, Ltd.)]-containing AK03N medium under 37° C., 5% CO2 conditions. On the next day of seeding, PD0325901 (SIGMA) (final concentration 1 μM) as MEK inhibitor was added to the AK03N medium (start of the first step) and the cells were exposed thereto for 6 days (completion of the first step). Thereafter, the cells were treated with 0.5×TRYPLE™ Select cell dissociation solution, dissociated using a cell scraper, dispersed to single cells by pipetting, seeded in a 12-well culture plate coated with IMATRIX™-511 laminin 511 E8 fragment (0.5 μg/cm^2) at 0.8×10^5 cells per 1 well and cultured under 37° C., 5% CO2 conditions (start of the second step). In the second step, the following 3 kinds of media were used. […]
# [5] = first step 6 days: 100 nM PD173074, 5, 10, 20 μM SU5402, QHJI01 and 1231A3 lines, day 49 of culture
# [6] = first step 6 days (1 μM PD0325901 or 100 nM PD173074), 201B7 and 1231A3 lines
# [7] = first step 6 days (1 μM PD0325901 or 100 nM PD173074), 1231A3 line, day 43 of culture
# [8] = first step 6 days (1 μM PD0325901 or 100 nM PD173074), Ff-I01 and QHJI01 lines, day 43 of culture
# [9] = first step 6 days: 1 μM PD0325901, 1.5, 3, 6 μM PD184352, 5, 10 μM U0126, 0.3 μM TAK-733, 0.3 μM AZD-8330, QHJI01 and 1231A3 lines, day 49 and day 50
compound,measurement,setting,value
"COC(=O)C[C@H](NC(=O)[C@H](C)NC(=O)[C@@H](NC(=O)OCc1ccccc1)C(C)C)C(=O)CF (racemic) [Z-VAD-FMK, benzyloxycarbonyl-Val-Ala-DL-Asp(OMe)-fluoromethylketone]",emergence of a brown-black cell population,"[1]; 20 μM in second step, 2.0×10^6 cells per well, first step MEK inhibitor, day 65 or 67 of culture",could be visually confirmed
"Cc1c[nH]c(C=C2C(=O)Nc3ccccc32)c1CCC(=O)O [SU5402, 2-[(1,2-Dihydro-2-oxo-3H-indol-3-ylidene)methyl]-4-methyl-1H-pyrrole-3-propanoic acid]",emergence of a brown-black cell population,[2]; [5],could be confirmed over a wide area
"CCN(CC)CCCCNc1ncc2cc(-c3cc(OC)cc(OC)c3)c(NC(=O)NC(C)(C)C)nc2n1 [PD173074, N-[2-[[4-(Diethylamino)butyl]amino]-6-(3,5-dimethoxyphenyl)pyrido[2,3-d]pyrimidin-7-yl]-N′-(1,1-dimethylethyl)urea]",emergence of a brown-black cell population,"[2]; PD173074 100 nM, 6 days first step, AK03, ESSENTIAL 8 or STEMSURE hPSC Medium Δ w/o bFGF, 201B7 and/or 1231A3 line, 38 to 42 days of culture",could be confirmed over a wide area
same,concentrations at which emergence of a brown-black cell population could be confirmed over a wide area,"[2]; PD173074, all concentrations studied",25 to 400 nM
same,emergence of RPE cells showing typical characteristics of RPE cell,[2]; [6],could be confirmed
same,emergence of a brown-black cell population,[2]; [7],could be confirmed over a wide area
same,emergence of a brown-black cell population,[2]; [8],could be confirmed over a wide area
same,emergence of a brown-black cell population,[2]; [5],could be confirmed over a wide area
same,"RT-PCR bands of retinal pigment epithelial cell markers RPE65, BEST1, CRALBP","RPE65, BEST1, CRALBP",clear bands could be confirmed
"O=S(=O)(c1cccc2cnccc12)N1CCCNCC1 [Fasudil, 1-(5-oquinolinesulfonyl)homopiperazine]",concentration at which emergence of a brown-black cell population could be visually confirmed,"[3]; tested 10, 30, 100 μM, 2.0×10^6 cells per well, first step FGF receptor inhibitor, day 41 of culture",not less than 10 μM
same,emergence of a brown-black cell population,"[1]; 10 μM in second step, 1.0×10^6 cells per well, first step FGF receptor inhibitor, day 48 of culture",could be visually confirmed
"NCCNS(=O)(=O)c1ccc(Cl)c2ccncc12 [WNTi, N-(2-Aminoethyl) chloroisoquinoline-8-sulfonamide]",brown-black area in the whole well,"[4]; second step days 1-12, single agent 3 μM CKI-7 with 10 μM Y-27632, day 43",decreased
same,emergence of cells showing typical characteristics of RPE cell,[4],sufficient number of cells
"NC(=O)c1ccc(-c2nc(-c3ccc4c(c3)OCO4)c(-c3ccccn3)[nH]2)cc1 [NODALi, 4-[4-(1,3-Benzodioxol-5-yl)-5-(pyridin-2-yl)-1H-imidazol-2-yl]benzamide]",emergence of cells showing typical characteristics of RPE cell,[4],same level
"N#CC(=C(N)Sc1ccccc1N)C(C#N)=C(N)Sc1ccccc1N [U0126, 1,4-Diamino-2,3-dicyano-1,4-bis[2-aminophenylthio]butadiene]",emergence of a brown-black cell population,[2]; [9],could be confirmed over a wide area
"O=C(NOC[C@H](O)CO)c1ccc(F)c(F)c1Nc1ccc(I)cc1F [PD0325901, N-[(2R)-2,3-Dihydroxypropoxy]-3,4-difluoro-2-[(2-fluoro-4-iodophenyl)amino]-benzamide]",emergence of a brown-black cell population,"[2]; 1 μM PD0325901, exposure for 3 days and 6 days, 1231A3 line, day 37 of culture",could be confirmed over a wide area
same,emergence of colored cell population,"[2]; 1 μM PD0325901, exposure for 13 days, 1231A3 line, day 37 of culture",sufficient emergence of colored cell population was also confirmed
same,cells showing typical characteristics of RPE cell,"[2]; 1 μM PD0325901, exposure for one day, 1231A3 line, day 37 of culture",almost no cell
same,emergence of a brown-black cell population,"[2]; PD0325901 1 μM (AK03 medium) or 0.03 μM (ESSENTIAL8 medium), 6 days first step, 201B7 and 1231A3 lines, 38 to 42 days of culture",could be confirmed over a wide area
same,concentrations at which emergence of a brown-black cell population could be confirmed over a wide area,"[2]; PD0325901, all concentrations studied",250 to 4000 nM
same,emergence of RPE cells showing typical characteristics of RPE cell,[2]; [6],could be confirmed
same,emergence of a brown-black cell population,[2]; [7],could be confirmed over a wide area
same,emergence of a brown-black cell population,[2]; [8],could be confirmed over a wide area
same,emergence of a brown-black cell population,[2]; [9],could be confirmed over a wide area
same,"RT-PCR bands of retinal pigment epithelial cell markers RPE65, BEST1, CRALBP","RPE65, BEST1, CRALBP",clear bands could be confirmed
"C[C@@H](N)[C@H]1CC[C@H](C(=O)Nc2ccncc2)CC1 [Y-27632, trans-4-[(1R)-1-aminoethyl]-N-4-pyridinylcyclohexanecarboxamide]",emergence of a brown-black cell population,"[3]; 10 μM in second step (days 1-13) after FGF receptor inhibitor (100 nM PD173074) first step, day 42 of culture",could be visually confirmed
same,concentration at which emergence of a brown-black cell population could be visually confirmed,"[3]; tested 1-100 μM, first step FGF receptor inhibitor or MEK inhibitor, day 48 of culture",not less than 10 μM
same,exposure period at which emergence of a brown-black cell population could be visually confirmed,"[1]; 10 μM in second step, tested 3-20 days, first step MEK inhibitor, day 49 of culture",not less than 6 days
same,emergence of a brown-black cell population,"[1]; 10 μM, 3 days of exposure in second step, first step MEK inhibitor, day 49 of culture",confirmed only slightly
same,emergence of a brown-black cell population,"[1]; low concentration (1 μM) in second step, 2.0×10^6 cells per well (10 times general number), first step FGF receptor inhibitor or MEK inhibitor, day 50",could be visually confirmed
same,concentration at which emergence of a brown-black cell population could be visually confirmed,"[1]; second step, tested 1-100 μM, first step FGF receptor inhibitor or MEK inhibitor, day 50 of culture",not less than 3 μM
"Cc1cc(C(=O)NOCCO)c(Nc2ccc(I)cc2F)n(C)c1=O [AZD-8330, 2-(2-fluoro-4-iodophenylamino)-N-(2-hydroxyethoxy)-1,5-dimethyl-6-oxo-1,6-dihydropyridine-3-carboxamide]",emergence of a brown-black cell population,[2]; [9],could be confirmed over a wide area
"O=C(NOCC1CC1)c1ccc(F)c(F)c1Nc1ccc(I)cc1Cl [PD184352, (2-[(2-Chloro-4-iodophenyl)amino]-N-cyclopropylmethoxy)-3,4-difluorobenzamide]",emergence of a brown-black cell population,[2]; [9],could be confirmed over a wide area
